Data taken from the supplement of paper PMC6045584.
± gives the standard deviation of the averaged measurements.

Experiments:
[1] = compound: T1, CC1(C)CC(=O)c2c(C(F)(F)F)nn(-c3ccc(C(N)=O)c(N[C@H]4CC[C@H](OC(=O)CN)CC4)c3)c2C1 [SNX-5422]; test: surviving fraction relative to DMSO-only wells; higher = less growth inhibition; settings: exposure time: 5 days
In short: (§1)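 After seeding at 250–500 cells per well in 384-well plates and a 24-hour wait, log-phase tumour cell lines were exposed without interruption for five days to inhibitors at 0.5, 1, 5, 10, 50, 100, 500 and 1000 nM. CellTiter-Glo luminescence was recorded after 10 minutes at room temperature. Viability is reported as surviving fraction, the luminescence normalised to the median of DMSO-only wells.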

[2] = compound: T2, CC[C@@H]1C(=O)N(C)c2cnc(Nc3ccc(C(=O)NC4CCN(C)CC4)cc3OC)nc2N1C1CCCC1 [BI-2536]; test: as above; settings: exposure time: 5 days
In short: as §1

[3] = compound: T3, Nc1nc2[nH]cnc2c(=S)[nH]1 [TIOGUANINE]; test: as above; settings: exposure time: 5 days
In short: as §1

[4] = compound: Cn1cc(C2=Nc3cc(NC(=O)C(N)C4CCCCC4)cc4c3C2=CNNC4=O)cn1; test: as above; settings: exposure time: 5 days
In short: as §1

[5] = compound: C=CC(=O)Nc1cc2c(Nc3ccc(F)c(Cl)c3)ncnc2cc1OCCCN1CCOCC1 [CANERTINIB]; test: as above; settings: exposure time: 5 days
In short: as §1

[6] = compound: T4, CN(C)C/C=C/C(=O)Nc1cc2c(Nc3ccc(F)c(Cl)c3)ncnc2cc1O[C@H]1CCOC1 [AFATINIB]; test: as above; settings: exposure time: 5 days
In short: as §1

[7] = compound: CCCCCCCCCCCCCCCC(=O)Nc1ccn([C@@H]2O[C@H](CO)[C@@H](O)[C@@H]2C#N)c(=O)n1 [SAPACITABINE]; test: as above; settings: exposure time: 5 days
In short: as §1

[8] = compound: CNC(=O)c1ccc(N2C(=S)N(c3ccc(C#N)c(C(F)(F)F)c3)C(=O)C2(C)C)cc1F [MDV3100]; test: as above; settings: exposure time: 5 days
In short: as §1

[9] = compound: T1, SNX-5422; test: area under dose-response curve of surviving fraction (unscaled, Aref=0) (surviving fraction x log10(nM)); higher = more resistant; settings: exposure time: 5 days; dose range 0.5-1000 nM
In short: (§2)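 Tumour cell lines in 384-well plates were exposed for five days to eight inhibitor concentrations from 0.5 to 1000 nM. Viability was read by CellTiter-Glo luminescence, normalised to DMSO-only wells, in three screens per line. Dose-response survival curves were fitted to surviving fractions by 3-parameter logistic regression in the drc R package. Area under the curve is the unscaled activity area (Aref = 0) over log10 dose.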

[10] = compound: T2, BI-2536; test: as above; settings: exposure time: 5 days; dose range 0.5-1000 nM
In short: as §2

[11] = compound: T3, TIOGUANINE; test: as above; settings: exposure time: 5 days; dose range 0.5-1000 nM
In short: as §2

[12] = compound: Cn1cc(C2=Nc3cc(NC(=O)C(N)C4CCCCC4)cc4c3C2=CNNC4=O)cn1; test: as above; settings: exposure time: 5 days; dose range 0.5-1000 nM
In short: as §2

[13] = compound: T4, AFATINIB; test: as above; settings: exposure time: 5 days; dose range 0.5-1000 nM
In short: as §2

## 143B BONE
[1]; 0.5 nM
  surviving fraction: 1 ± 0.056
[1]; 1 nM
  surviving fraction: 0.985 ± 0.0099
[1]; 5 nM
  surviving fraction: 1.02 ± 0.037
[1]; 10 nM
  surviving fraction: 0.996 ± 0.0057
[1]; 50 nM
  surviving fraction: 0.365 ± 0.016
[1]; 100 nM
  surviving fraction: 0.149 ± 0.0028
[1]; 500 nM
  surviving fraction: 0.087 ± 0.0071
[1]; 1000 nM
  surviving fraction: 0.091 ± 0.011
[2]; 0.5 nM
  surviving fraction: 1.01 ± 0.023
[2]; 1 nM
  surviving fraction: 0.954 ± 0.0071
[2]; 5 nM
  surviving fraction: 0.117 ± 0.013
[2]; 10 nM
  surviving fraction: 0.0745 ± 0.005
[2]; 50 nM
  surviving fraction: 0.082 ± 0.0042
[2]; 100 nM
  surviving fraction: 0.114 ± 0.013
[2]; 500 nM
  surviving fraction: 0.254 ± 0.0014
[2]; 1000 nM
  surviving fraction: 0.235 ± 0.025
[3]; 0.5 nM
  surviving fraction: 0.986 ± 0.015
[3]; 1 nM
  surviving fraction: 1.01 ± 0.018
[3]; 5 nM
  surviving fraction: 0.993 ± 0.025
[3]; 10 nM
  surviving fraction: 0.999 ± 0.0071
[3]; 50 nM
  surviving fraction: 0.9995 ± 0.0092
[3]; 100 nM
  surviving fraction: 1.01 ± 0.028
[3]; 500 nM
  surviving fraction: 0.904 ± 0.0014
[3]; 1000 nM
  surviving fraction: 0.707 ± 0.041
[4]; 0.5 nM
  surviving fraction: 0.981 ± 0.052
[4]; 1 nM
  surviving fraction: 1.01 ± 0.029
[4]; 5 nM
  surviving fraction: 0.992 ± 0.033
[4]; 10 nM
  surviving fraction: 1.0045 ± 0.00071
[4]; 50 nM
  surviving fraction: 0.96 ± 0.052
[4]; 100 nM
  surviving fraction: 1 ± 0.035
[4]; 500 nM
  surviving fraction: 0.303 ± 0.0042
[4]; 1000 nM
  surviving fraction: 0.036 ± 0.0014
[5]; 0.5 nM
  surviving fraction: 1.05 ± 0.044
[5]; 1 nM
  surviving fraction: 1.04 ± 0.057
[5]; 5 nM
  surviving fraction: 1.05 ± 0.038
[5]; 10 nM
  surviving fraction: 1.06 ± 0.061
[5]; 50 nM
  surviving fraction: 1.08 ± 0.047
[5]; 100 nM
  surviving fraction: 1.07 ± 0.039
[5]; 500 nM
  surviving fraction: 1.04 ± 0.067
[5]; 1000 nM
  surviving fraction: 0.984 ± 0.073
[6]; 0.5 nM
  surviving fraction: 1.0165 ± 0.00071
[6]; 1 nM
  surviving fraction: 1.05 ± 0.011
[6]; 5 nM
  surviving fraction: 1.0335 ± 0.00071
[6]; 10 nM
  surviving fraction: 1.02 ± 0.014
[6]; 50 nM
  surviving fraction: 1.01 ± 0.023
[6]; 100 nM
  surviving fraction: 1.02 ± 0.02
[6]; 500 nM
  surviving fraction: 1 ± 0.028
[6]; 1000 nM
  surviving fraction: 0.871 ± 0.11
[7]; 0.5 nM
  surviving fraction: 1.03 ± 0.067
[7]; 1 nM
  surviving fraction: 1.05 ± 0.029
[7]; 5 nM
  surviving fraction: 1.08 ± 0.069
[7]; 10 nM
  surviving fraction: 1.06 ± 0.03
[7]; 50 nM
  surviving fraction: 1.08 ± 0.047
[7]; 100 nM
  surviving fraction: 1.12 ± 0.098
[7]; 500 nM
  surviving fraction: 1.05 ± 0.079
[7]; 1000 nM
  surviving fraction: 0.942 ± 0.05
[8]; 0.5 nM
  surviving fraction: 1.07 ± 0.061
[8]; 1 nM
  surviving fraction: 1.1 ± 0.1
[8]; 5 nM
  surviving fraction: 1.09 ± 0.086
[8]; 10 nM
  surviving fraction: 1.09 ± 0.088
[8]; 50 nM
  surviving fraction: 1.13 ± 0.12
[8]; 100 nM
  surviving fraction: 1.13 ± 0.11
[8]; 500 nM
  surviving fraction: 1.11 ± 0.11
[8]; 1000 nM
  surviving fraction: 1.1 ± 0.093
[9]
  area under dose-response curve: 2.02
[10]
  area under dose-response curve: 0.815
[11]
  area under dose-response curve: 3.27
[12]
  area under dose-response curve: 2.8
[13]
  area under dose-response curve: 3.29
